Assay results published in PubChem BioAssay (NCI).
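Assay format: 96-well plates, 48-hour exposure. GI50: concentration for 50% inhibition of growth. TGI marks complete inhibition of growth.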

Key:
Experiment in all cases: DTP human tumour cell line panel, 48 h
[1] = test system: SN12C renal
[2] = test system: OVCAR-3 ovarian
[3] = test system: NCI-H23 lung
[4] = test system: 786-0 renal
[5] = test system: HOP-92 NSCLC
[6] = test system: SF-295 CNS
[7] = test system: HL-60(TB) leukemia
[8] = test system: M14 melanoma
[9] = test system: CCRF-CEM leukemia
[10] = test system: DU-145 prostate

Row | SMILES | TGI [1] [µM] | TGI [2] [µM] | TGI [3] [µM] | TGI [4] [µM] | TGI [5] [µM] | TGI [6] [µM] | TGI [7] [µM] | GI50 [8] [µM] | TGI [8] [µM] | GI50 [1] [µM] | GI50 [2] [µM] | GI50 [3] [µM] | GI50 [9] [µM] | TGI [9] [µM] | GI50 [4] [µM] | GI50 [5] [µM] | GI50 [6] [µM] | GI50 [10] [µM] | TGI [10] [µM] | GI50 [7] [µM]
1 | CC1(C)C2CCC13CS(=O)(=O)N1O[C@]13C(=O)O2 (stereo not given in full) | > 100 | > 100 | > 100 | > 100 | > 100 | > 100 | > 100 |  |  |  |  |  |  |  |  |  |  |  |  | 
2 | COc1ccc(OC)c(C2SCC(=O)N2NC(=O)C(O)c2ccccc2)c1 (stereo not given) | > 100 | > 100 | > 100 | > 100 | > 100 | > 100 |  | > 100 | > 100 | > 100 | > 100 | > 100 | > 100 | > 100 | > 100 | > 100 | > 100 | > 100 | > 100 | 
3 | O=C([CH-]C(=O)c1ccccc1)c1ccccc1.O=C([CH-]C(=O)c1ccccc1)c1ccccc1.[OH-].[OH-].[Ti+4] | > 100 | > 100 |  | > 100 |  | > 100 | > 100 | 36.2 | > 100 | > 100 | 51.1 |  |  |  | 47.1 |  | 30.4 |  |  | > 100
4 | C=C1CCC2[C@@H](CCC3[C@]2(C)CCC[C@]3(C)C(=O)OC)[C@@H]1CC=O (stereo not given in full) | > 100 | 41.9 | 66.5 | > 100 | 48.9 | > 100 | 55.9 |  | 40.2 |  |  |  |  | 64.2 |  |  | 50.2 |  |  | 
5 | Cc1cccc(NC(=O)c2sc3nc4c(cc3c2N)CN(Cc2ccccc2)CC4)c1C | > 50 | 31.9 | > 50 | 28.5 | 47.3 | 41.6 |  | 0.149 | 33.2 | 0.313 | 0.194 | 0.256 | 0.195 | > 50 | 0.197 | 0.736 | 0.161 | 0.201 | > 50 | 
6 | c1ccc(P(=Nc2ccccc2N=P(c2ccccc2)(c2ccccc2)c2ccccc2)(c2ccccc2)c2ccccc2)cc1 | 10.9 | 0.783 | 2.25 | 11.3 | 0.573 | 10.7 | 3.43 |  | 15.7 |  |  |  |  | 13 |  |  |  |  |  | 
7 | Cc1ccc(C2=Nc3ccccc3SC(c3cccc([N+](=O)[O-])c3)C2)cc1 (stereo not given) | > 100 | 60 | > 100 | 27 | 81.3 | > 100 |  |  | > 100 |  |  |  |  |  |  |  |  |  | > 100 | 
8 | COC(=O)C(C)(C)N=CN(C)C | > 100 | > 100 | > 100 | > 100 | > 100 | > 100 | > 100 |  | > 100 |  |  |  |  | > 100 |  |  |  |  |  | 
9 | O=C(NC1CCCC1=O)c1ccccc1 (stereo not given) | > 100 | > 100 | > 100 | > 100 | > 100 | > 100 | > 100 |  | > 100 |  |  |  |  | > 100 |  |  |  |  |  | 
10 | CC1(C)OCC(C(O)C2OC(C)(C)OC2/C=N\O)O1 (stereo not given) |  | > 100 | > 100 | > 100 | > 100 | > 100 | > 100 |  |  |  |  |  |  | > 100 |  |  |  |  |  | 
11 | CNS(=O)(=O)NNS(=O)(=O)c1ccc(Cl)cc1 | > 100 | > 100 | > 100 | > 100 | > 100 | > 100 | > 100 |  | > 100 |  |  |  |  | > 100 |  |  |  |  |  | 
12 | Cc1ccc(S(=O)OC2C3CC4CC(C3)CC2C4)cc1 (stereo not given) | > 100 | > 100 | > 100 | > 100 | > 100 | > 100 | > 100 |  | > 100 |  |  |  |  |  |  |  |  |  |  | 
13 | CN(C)c1ccc(/C=C2\C=Cc3ccccc32)cc1 | > 100 | > 100 | > 100 | > 100 | > 100 | > 100 | > 100 |  | > 100 |  |  |  |  | > 100 |  |  |  |  |  | 
14 | CCCCCCN(N)C(=O)CC#N | > 100 | > 100 | > 100 | > 100 | > 100 |  |  |  | > 100 |  |  |  |  | > 100 |  |  |  |  |  | 
15 | CC1CN1c1c(C(=O)/C=C/c2ccccc2)c(-c2ccccc2)nn(C)c1=O (stereo not given) | 32.6 | 40.8 | 31.8 | 30.6 | 46.7 | 46.8 | 49.7 |  | 32.8 |  |  |  |  | 37.9 |  |  |  |  |  | 
16 | Fc1cccc(C2SCc3nc4ccccc4n32)c1F (stereo not given) | > 100 | > 100 | > 100 | > 100 | 85 | > 100 | 46.9 |  | > 100 |  |  |  |  | > 100 |  |  |  |  |  | 

Row | SMILES | TGI [1] [µM] | TGI [2] [µM] | TGI [3] [µM] | TGI [4] [µM] | TGI [5] [µM] | TGI [6] [µM] | TGI [7] [µM] | GI50 [8] [µM] | TGI [8] [µM] | GI50 [1] [µM] | GI50 [2] [µM] | GI50 [3] [µM] | GI50 [9] [µM] | TGI [9] [µM] | GI50 [4] [µM] | GI50 [5] [µM] | GI50 [6] [µM] | GI50 [10] [µM] | TGI [10] [µM] | GI50 [7] [µM]
17 | N#Cc1ccc(N=Cc2c([O-])ccc3ccccc23)cc1.[C-]#[O+].[C-]#[O+].[Ir] | 27.5 | 15.1 | 24.4 | 28 | 10.3 | 35.7 | 5.18 | 5.22 | 19 | 13.2 | 4.02 | 10.5 | 1.67 | 7.1 | 14.3 | 3.23 | 16.9 |  |  | 1.5
18 | COc1cc2nc(NCCCCCNC(=O)c3ccco3)nc(N)c2cc1OC | > 100 | 62.5 | > 100 | 49 | 42 | > 100 | 43.3 |  | 34.8 |  |  |  |  | 88.2 |  |  |  |  |  | 
19 | C/C=C(\C)c1cc(O)c(C)c2c1Oc1cc(O)c(Cl)c(C)c1C(=O)O2 | 30.9 |  | 38.6 | 49.2 |  | 32.4 | 67.3 |  | 43.4 |  |  |  |  |  |  |  |  |  |  | 
20 | O=C(O)/C(Cl)=C(\Cl)C(=O)Nc1ccc(Cl)c(Cl)c1Cl | 36.7 | 35.5 | 33.2 | 32.1 | 31.1 | 33 | 45.4 |  | 32.5 |  |  |  |  | > 100 |  |  |  |  |  | 
21 | COC1O[C@@H]2C[C@H]3C(C)(C)CCC[C@]3(C)C3=CCCC1[C@@]32C (stereo not given in full) | > 100 | > 100 | > 100 | > 100 | > 100 | > 100 |  | > 100 | > 100 | > 100 | > 100 | > 100 | > 100 | > 100 | > 100 | > 100 | > 100 | > 100 | > 100 | 
22 | CN1CCN(Cc2ccc(NC(=O)c3[nH]ncc3Nc3ncnc4sc5c(c34)CCCC5)cc2)CC1 | 1.22 | 1.34 |  | 1.9 | 4.81 | 1.78 | 0.804 | 0.324 | 1.64 | 0.0425 | 0.22 |  | 0.179 | 0.823 | 0.365 | 1.48 | 0.373 |  |  | 0.269
23 | COc1ccc(C=O)c(NC(=O)C(C)C)c1 | 57.6 | > 100 | > 100 | > 100 | 53.5 | > 100 |  |  | > 100 |  |  |  |  | > 10 |  |  |  |  |  | 
24 | CCO/C=C1\N=C(c2ccccc2Br)OC1=O | > 100 | > 100 | > 100 | > 100 | > 100 | > 100 | > 100 |  | > 100 |  |  |  |  | > 100 |  |  |  |  |  | 
25 | CC(C)c1c2[nH]c3ccccc3c2c(C(C)C)c2[nH]c3ccccc3c12 | > 100 | > 100 | > 100 | > 100 | > 100 | > 100 | > 62.5 |  | > 100 |  |  |  |  | > 100 |  |  |  |  |  | 
26 | COc1ccc(C(Cl)=C(c2ccc(OCCN(C)C)cc2)c2ccc(OCCN(C)C)cc2)cc1 | 11.7 | 5.02 | 3.98 | 2.53 | 6.1 | 3.24 | 3.65 |  | 2.92 |  |  |  |  | 3.83 |  |  |  |  |  | 
27 | COc1ccc2c(c1OC)C(=O)OC2C1c2c(c([N+](=O)[O-])c3c(c2OC)OCO3)CCN1C (stereo not given) | > 100 | > 100 | > 100 | > 100 |  | > 100 |  | > 100 | > 100 | > 100 | > 100 | > 100 |  |  | > 100 |  | > 100 | > 100 | > 100 | 
28 | CCOC(=O)C(=O)Nc1cc(Cl)ccc1Cl | > 100 | > 100 | > 100 | > 100 | > 100 | > 100 | > 100 |  | > 100 |  |  |  |  | > 100 |  |  |  |  |  | 
29 | COC(CN1C=C(Sc2ccccc2)CC1)OC | > 100 | 63.6 | 69.7 | > 100 | 86.5 | 71 | 34 |  | > 100 |  |  |  |  | 62.8 |  |  |  |  |  | 
30 | O=c1[nH]cnc2c(C3NC(CO)C(O)C3O)c[nH]c12 (stereo not given) | > 100 | > 100 | > 100 | > 100 | > 100 | > 100 |  | > 100 | > 100 | > 100 | > 100 | > 100 |  |  | > 100 | > 100 | > 100 | > 100 | > 100 | 
31 | Cc1ccc(NC(=O)c2ccccc2C(=O)O)cc1C | > 100 | > 100 | > 100 | > 100 | > 100 | > 100 |  |  | > 100 |  |  |  |  |  |  |  |  |  | > 100 | 
